Measurements: patent publication US12344600B2, “c-Myc mRNA translation modulators and uses thereof in the treatment of cancer” (Anima Biotech Inc., priority 2022, dated 2025)
Starred links: 1 amine or outer side, 2 acyl side, 3 side chain; linkers in the order of their positions; H or OH if unused. Positions of bridges follow the written chain, without caps; N, C: chain ends. Non-standard residues stand in square brackets, D forms with d. Residues, ends and D or L forms follow the SMILES beside them. Chains are numbered I, II in the order given. Actinocin(9to1) = Cc1c2oc3c(C)ccc(C(=O)[*:1])c3nc-2c(C(=O)[*:2])c(N)c1=O; NMeV = CN[C@H](C(=O)O)C(C)C; Sar = CNCC(=O)O

Tests used:
Format in all cases: cell-based, human
c-Myc mRNA [1] = test: c-Myc mRNA level and transcription sites in A549 cells (imaging)
Description: (§1) A549 cells were exposed to vehicle, general transcription inhibitor actinomycin D or anti-c-Myc compound. […] Cell nuclei stained with DAPI, c-Myc protein, c-Myc mRNA and transcription sites are signed on the images.

c-Myc = c-Myc immunofluorescence assay; conditions: A549 cells, 24 hours, FIG. 3 upper panel
How it was run: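 A549 NSCLC cells grown 48 h, then treated 24 h with increasing compound concentrations; fixed in 4% paraformaldehyde, stained with anti-c-Myc antibody plus fluorescent secondary and DAPI. Per-cell c-Myc fluorescence quantified by high-content imaging at 20×; dose-response fitted by logistic regression to give EC50.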

c-Myc mRNA [2] = test: Fluorescent in situ hybridization (FISH) assay; conditions: A549 cells, 4 hours, FIG. 3 lower panel
Description: A549 cells were incubated with compounds for 24 hours (FIG. 3, upper panel) and c-Myc protein detected by immunofluorescence. In parallel, A549 cells were incubated with compounds for 4 hours and c-Myc mRNA was visualized by microscopy using c-Myc mRNA specific fluorescent-tagged probes (FIG. 3, lower panel).
A549 cells were grown in 384-wells plates (Perkin Elmer, Cat. 6057300) for 48 hours, treated with compounds for 4 hours and then fixed for 20 min in 4% paraformaldehyde. Next day, permeabilization was done for 90 min at 4° C., using 70% ethanol. Then, the cells were incubated for 10 min with 10% formamide in 10% saline-sodium citrate. Fluorescently labeled customer DNA probes that target c-Myc (Cy3, BioSearch Technologies, Cat. SMF-1063-5) and GAPDH (Cy5, BioSearch Technologies, Cat. SMF-2019-1) mRNAs were hybridized overnight at 37° C. in a dark chamber in 10% formamide. The next day, cells were washed twice with 10% formamide for 30 min. […]
Following RNA FISH experiments, images of cells were taken with Operetta (Perkin Elmer, USA), a wide-field fluorescence microscope at ×63 magnification. […] In Columbus, cells were identified by their nucleus, using the “Find Nuceli” module, cytoplasm was detected based on the FISH-channel, and single mRNAs in the cytoplasm and transcription sites in the nucleus were detected using “Find Spots” module. […]

c-Myc protein = c-Myc protein level in A549 cells (imaging)
Description: as §1

[3] = tested on: global translation in A549 cells; test: Metabolic labeling assay (global translation); conditions: 4 hour pulse, FIG. 2
Description: A549 cells were incubated with active compounds and metabolically labelled with fluorescent methionine for a 4 hour pulse (click-chemistry modified methionine). Cells were fixed and newly synthesized proteins detected by using click-chemistry with a fluorescent detector (FIG. 2).
A549 cells were seeded at 3,200 cells per well in complete culture medium. Plates were incubated at 37° C., 5% CO2 overnight. After 48 hours of incubation, the growth medium was aspirated, and cells were washed three times with HBSS. Metabolic labeling medium DMEM (-Cys -Met), containing 10% dialyzed FBS, 1% penicillin-streptomycin and 1% L-glutamine was added to the cells for 30 min. Then medium was replaced by metabolic labeling medium containing 25 μM L-Azidohomoalanine (AHA, ThermoFisher) and tested compounds at a final concentration of 30 μM, and cells were incubated for 4 hours at 37° C., 5% CO2. Cells were washed by HBSS at 37° C. for 15 min before fixing with 4% paraformaldehyde. Cells were washed twice with 3% BSA in PBS before permeabilization with 0.5% Triton X-100 in PBS for 20 min. The AHA staining with Alexa Fluor™ 555 alkyne was performed according to the manufacturer protocol. Images were captured with Operetta microscope (Perkin Elmer) using ×20 high NA objective lens.

global protein synthesis = test: AHA metabolic labeling in A549 cells
Description: FIG. 2 depicts selective regulation of c-Myc translation. […] Cell nuclei stained with DAPI and AHA metabolic labeling are signed on the images.

Row | Structure (SMILES) | c-Myc mRNA level as well as transcription sites (c-Myc mRNA [1]) | c-Myc protein by immunofluorescence (c-Myc) | c-Myc mRNA in the cytoplasm (c-Myc mRNA [2]) | c-Myc transcription site (spots inside the nucleus) (c-Myc mRNA [2]) | c-Myc protein level (c-Myc protein) | incorporation of modified methionine (global translation) [3] | global protein synthesis (AHA metabolic labeling) (global protein synthesis)
1 | Cc1c2oc3c(C)ccc(C(=O)N[C@@H]4C(=O)N[C@H](C(C)C)C(=O)N5CCC[C@H]5C(=O)N(C)CC(=O)N(C)[C@@H](C(C)C)C(=O)O[C@@H]4C)c3nc-2c(C(=O)N[C@@H]2C(=O)N[C@H](C(C)C)C(=O)N3CCC[C@H]3C(=O)N(C)CC(=O)N(C)[C@@H](C(C)C)C(=O)O[C@@H]2C)c(N)c1=O [actinomycin D] (I: T[dV]P[Sar][NMeV] / II: T[dV]P[Sar][NMeV]; ester I:1-I:C, II:1-II:C; linker I:N-II:N via Actinocin(9to1)) | complete reduction | reduced c-Myc protein | inhibited | inhibited transcription site | significant decrease |  | 
2 | C[C@@H]1C[C@@H]([C@H](O)CC2CC(=O)NC(=O)C2)C(=O)[C@@H](C)C1 [cycloheximide] |  |  |  |  |  | completely reduced incorporation of modified methionine | total inhibition
